Reference: US8173626B2, “Methods, dosing regimens and medications using anti-progestational agents for the treatment of disorders” (Danco Laboratories LLC, priority 2006, dated 2012)

Columns and labels:
uterine leiomyomata [1] = conditions: cited from earlier work
uterine leiomyomata [2] = assay: Clinical study of 2.5 mg mifepristone for the treatment of uterine leiomyomata (Example 1); type: in vivo, human; conditions: 2.5 mg daily, three months
Experimental: The study was conducted at a single site in Rochester, N.Y. Subjects: Inclusion criteria for the study included that subjects be (i) female; (ii) 18 years of age to premenopausal; and (iii) willing and able to give informed consent and comply with study requirements; and have (i) at least moderate symptoms of menorrhagia and/or pelvic pain/pressure; (ii) a total uterine volume greater than or equal to 160 cubic centimeters (cc) by ultrasound measurement; (iii) at least one leiomyomata ≧2.5 cm in size; (iv) a score of equal to or greater than 39 on the Uterine Fibroid Symptom and Quality of Life Scale; (v) declined standard treatment options for symptomatic leiomyomata; and (vi) agreed to use a barrier method (condoms, diaphragms) or other effective non-hormonal method of contraception (abstinence, sterilization) throughout participation in the study. Exclusion criteria for the study included: (i) current or planned pregnancy during the study period; (ii) menopausal, as indicated by follicle-stimulating hormone (FSH) level of the reference laboratory; (iii) currently breast-feeding; (iv) untreated abnormal pap smear; (v) presence of conditions other than leiomyomata contributing to pain and/or bleeding; (vi) hemoglobin […]; (vii) presence of […] masses or tenderness requiring further evaluation or surgery; (viii) grade III or IV hydronephrosis by ultrasound; (ix) severe, active mental disorder; […] (xi) current or recent (within the last three months) use of oral systemic corticosteroids, hormones (including estrogens, progestins, oral contraceptives), danazol, anticoagulants, or herbal or botanical supplements with possible hormonal effects; (xii) use within the past six months of GnRH analogs or Depo-Provera®; and (xiii) current or planned use during the study of any of the following medications or products: ketoconazole, itraconazole, erythromycin, grapefruit juice, rifampin, St. John's Wort, phenytoin, phenobarbital or carbamazepine Primary recruitment of subjects occurred through direct advertising and physician referrals. Women who were successfully prescreened were contacted by telephone and invited to an screening session/orientation. Prospective subjects were provided with a verbal and written description of the study and requirements for participation. Written informed consent was obtained from each participant at the screening session/orientation, and medical record releases were obtained and reviewed by the project gynecologist. Participants who gave consent were assigned a study ID number and asked to proceed further with the screening session. […] During the screening session the following information was collected: Physical Examination: Height, weight, blood pressure, pulse readings, examination of the breasts, heart, lungs, abdomen, and complete gynecologic examination including bi-manual at screening session/orientation (baseline). Height, weight, blood pressure, pulse readings and examination of the breasts. Blood samples: Negative pregnancy test and normal liver function testing (ALT, AST), hemoglobin and FSH levels. Ultrasonography: All subjects underwent abdominal and vaginal ultrasonography and uterine artery and leiomyomata blood flow assessment. Specifically, uterine leiomyomata size was assessed by transabdominal and/or transvaginal sonography by a single, certified and experienced ultrasonographer. Combined abdominal and vaginal ultrasonography was the standard for assessing leiomyomata size. […]

[3] = system: breakthrough uterine bleeding in new starters of DMPA; assay: Mifepristone for prevention of breakthrough bleeding in new starters of DMPA (Example 9); type: in vivo, human; conditions: 50 mg capsule every 14 days with DMPA
[4] = system: endometrial receptors and breakthrough bleeding; conditions: women on Norplant, mifepristone orally; Cheng et al.; cited from earlier work
uterine leiomyomata [5] = assay: Randomized, double-blinded, placebo-controlled study of mifepristone 5 mg daily for symptomatic uterine leiomyomata (Example 11); type: in vivo, human
Excerpt: The Study and Results are described in […] et al., Obstetrics & Gynecology, 108(6) (2006), hereby incorporated by reference in its entirety. […] Women were excluded if they were pregnant or intended to become pregnant during the next 6 months or had major medical morbidity or severe anemia, active mental illness, elevated liver enzymes, or substance abuse. Participants agreed to use barrier contraception and not to use hormonal or surgical treatments for leiomyomata during the course of the trial. Analgesic use was permitted. […] Secondary measures included global health status (Medical Outcomes 36-item Short Form [SF-36] survey) and global pain (McGill Pain Questionnaire). Each questionnaire was administered at baseline, 1 month, 3 months, and 6 months, except the McGill Pain Questionnaire, which was assessed monthly. Bleeding was assessed by using daily menstrual logs and pictorial bleeding charts. A monthly blood loss index was calculated from menstrual history by assigning values […] to each day of spotting, indicating light, moderate, and heavy flow, respectively, and then summing the results. Monthly assessments of the presence and intensity of likely leiomyoma symptoms (including pelvic pain, pelvic pressure, bladder pressure, urinary frequency, low back pain, rectal pain, and pain with intercourse) and drug adverse effects (including hot flushes, headache, nausea, vomiting, mood swings, diarrhea, decreased libido, weakness, fatigue, and nervousness) were performed with a standardized instrument consisting of 5-point Likert scale items. […] The uterus was measured in three planes and a total volume calculated. The five largest leiomyomata were identified, a volume calculated for each of the leiomyomata, and the results summed. Baseline uterine volume was subtracted from each subsequently measured uterine volume, and volume changes were analyzed. The final analysis was powered to detect a 25-point difference in mean Uterine Fibroid Symptom Quality of Life scores. Differences in Uterine Fibroid Symptom Quality of Life scores, ultrasound measures, bleeding, pain, and other longitudinal measures were assessed by using individual growth curve models. […] Approximate t tests were used to test hypotheses of between-group and within-group differences in outcomes.

[6] = biological target: glucocorticosteroid receptor (GR) (Homo sapiens, UniProt P04150); conditions: cited from earlier work
Sequence of glucocorticosteroid receptor (GR) (P04150 whole entry): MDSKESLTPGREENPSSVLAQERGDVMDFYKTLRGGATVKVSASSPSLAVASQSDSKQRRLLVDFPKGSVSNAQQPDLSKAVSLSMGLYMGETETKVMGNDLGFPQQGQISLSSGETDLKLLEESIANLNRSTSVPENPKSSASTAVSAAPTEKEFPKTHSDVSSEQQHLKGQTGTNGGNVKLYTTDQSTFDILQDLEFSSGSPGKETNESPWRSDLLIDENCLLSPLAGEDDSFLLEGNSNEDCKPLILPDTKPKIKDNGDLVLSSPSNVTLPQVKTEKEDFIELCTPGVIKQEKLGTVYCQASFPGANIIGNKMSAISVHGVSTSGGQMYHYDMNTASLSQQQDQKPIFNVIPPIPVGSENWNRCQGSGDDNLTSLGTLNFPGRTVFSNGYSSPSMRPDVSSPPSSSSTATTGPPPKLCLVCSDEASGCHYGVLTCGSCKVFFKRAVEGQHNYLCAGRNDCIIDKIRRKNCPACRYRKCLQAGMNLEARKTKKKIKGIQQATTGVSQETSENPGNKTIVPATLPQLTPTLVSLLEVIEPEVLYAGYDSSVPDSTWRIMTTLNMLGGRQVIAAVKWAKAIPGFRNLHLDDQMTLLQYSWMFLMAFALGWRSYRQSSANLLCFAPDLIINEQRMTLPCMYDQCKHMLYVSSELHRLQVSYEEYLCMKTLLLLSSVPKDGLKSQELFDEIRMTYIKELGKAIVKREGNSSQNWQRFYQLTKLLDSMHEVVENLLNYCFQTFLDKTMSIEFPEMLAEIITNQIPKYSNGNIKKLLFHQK

SMILES: CC#C[C@]1(O)CC[C@H]2[C@@H]3CCC4=CC(=O)CCC4=C3[C@@H](c3ccc(N(C)C)cc3)C[C@@]21C [mifepristone, 17-hydroxy-11-(4-dimethylaminophenyl)-17-(prop-1-ynyl)estra-4,9-dien-3-one]
- effectiveness (uterine leiomyomata [1]; 5 mg administered for 6 months, Eisinger et al.): confirmed the effectiveness
- uterine leiomyomata size (uterine leiomyomata [1]; Eisinger et al. 2003): reduce uterine leiomyomata size
- uterine shrinkage and rates of amenorrhea compared with GnRH agonists (uterine leiomyomata [1]; Kettel et al., Murphy et al.): equivalent amount of uterine shrinkage and rates of amenorrhea to GnRH agonists
- side effects of the lower described doses (uterine leiomyomata [1]; doses such as 10 mg): increased hot flashes
- side effects of the highest described doses (uterine leiomyomata [1]; doses such as 50 mg): can increase the prevalence and severity of hot flashes, can cause an elevation in hepatic enzymes
- amenorrhea (uterine leiomyomata [2]): all subjects became amenorrheic
- mean decrease in leiomyomata volume (uterine leiomyomata [2]): 26%
- mean decrease in uterine volume (uterine leiomyomata [2]): 19%
- mean leiomyomata volume (aggregated) after treatment (uterine leiomyomata [2]; baseline 187): 139
- mean uterine volume after treatment (uterine leiomyomata [2]; baseline 795 cc): 653 cc
- median percentage days of bleeding ([3]; 1232 women-days, placebo 30%, p<0.05, results to date): 11%
- adverse events ([3]; to date): no adverse events have occurred
- breakthrough bleeding [4]: decreased breakthrough bleeding
- endometrial estrogen receptor concentration [4]: increased endometrial estrogen receptor concentration
- endometrial progesterone receptor concentration [4]: decreased endometrial progesterone receptor concentration
- period in which most of the improvement in symptoms and quality of life occurred (uterine leiomyomata [5]; 5 mg daily for 26 weeks, first weeks of treatment): 8-12 weeks
- SF-36 subscales (uterine leiomyomata [5]; 5 mg daily, 6 months): improvements in energy and fatigue, health status change, and pain
- endometrial hyperplasia or other significant endometrial pathology (uterine leiomyomata [5]; 5 mg daily, 6 months): No endometrial hyperplasia or other significant endometrial pathology was observed
- liver function (uterine leiomyomata [5]; 5 mg daily, 6 months): None of the participants showed abnormal liver function
- reduction in leiomyoma size vs placebo (uterine leiomyomata [5]; 5 mg daily, 6 months): statistically significant differences in reduction in leiomyoma size
- leiomyoma-specific quality of life and aspects (concern, activities, energy and mood, control, self-consciousness, sexual functioning) vs placebo (uterine leiomyomata [5]; 5 mg daily, 6 months, P<0.001 overall): Significant improvements
- average decrease of uterine volume (uterine leiomyomata [5]; 5 mg daily, 6 months, P=0.02, placebo increased 73 mL): 200 mL
- pain, McGill Pain Questionnaire (uterine leiomyomata [5]; 5 mg daily, 6 months, difference to placebo not statistically significant): decreases in pain
- mean hemoglobin level after treatment (uterine leiomyomata [5]; 5 mg daily, 6 months, from 12.0 g/dL, P<0.001): 13.5 g/dL
- potential medication adverse effects (uterine leiomyomata [5]; 5 mg daily, 6 months, incidence and severity not statistically different from placebo): uncommon
- tolerability (uterine leiomyomata [5]; 5 mg daily, 6 months, low dropout rate): well tolerated
- bleeding (uterine leiomyomata [5]; 5 mg daily, 6 months, not in placebo group): decreased markedly
- mean Uterine Fibroid Symptoms Quality of Life increase (uterine leiomyomata [5]; 5 mg daily, 6 months, of a possible 100 points, range 0-86, placebo 16.7): 50.1 points
- mean Uterine Fibroid Symptoms Quality of Life increase, percent (uterine leiomyomata [5]; 5 mg daily, 6 months, placebo 41%): 135%
- average decrease of uterine volume adjusted for individual baseline volume (uterine leiomyomata [5]; 5 mg daily, 6 months, secondary regression, placebo increased 10%): 47%
- cystic glandular dilatation of the endometria (uterine leiomyomata [5]; 5 mg daily, 6 months, treated women vs placebo): Higher rates
- women anemic (hemoglobin below 12.0 g/dL) after six months (uterine leiomyomata [5]; 5 mg daily, 2 of 22, baseline 11 of 22 (50%), control 60%): 9%
- women amenorrheic by the sixth month (uterine leiomyomata [5]; 5 mg daily, 9 of 22 women, none in placebo group): 41%
- symptom severity score at 6 months (uterine leiomyomata [5]; 5 mg daily, from 67 at baseline, placebo 67 to 50): 21
- monthly reports of symptoms (pelvic pain, pelvic pressure, bladder pressure, urinary frequency, low back pain, rectal pain, pain with intercourse) (uterine leiomyomata [5]; 5 mg daily, group difference significant only for pain with intercourse (P<0.05)): all showed improvements
- affinity for the glucocorticosteroid receptor (GR) [6]: high affinity
